Experimental data published in ChEMBL document CHEMBL4422624, “A novel class of anthraquinone-based HDAC6 inhibitors” (Eur J Med Chem, 2019).
Calls of active or inactive are those of the source. The calls are words filed in the database; no cut-off is given here.

Tests used:
Histone deacetylase 1 [1] = target: T1, Histone deacetylase 1 (Homo sapiens, UniProt Q13547); test: Inhibition of human recombinant HDAC1 using fluorogenic HDAC substrate-3 by fluorescence assay
Histone deacetylase 2 = Histone deacetylase 2 (Homo sapiens, UniProt Q92769); test: Inhibition of HDAC2 (unknown origin) using fluorogenic HDAC substrate-3 by fluorescence assay
Chain of Histone deacetylase 2 (Q92769 whole entry): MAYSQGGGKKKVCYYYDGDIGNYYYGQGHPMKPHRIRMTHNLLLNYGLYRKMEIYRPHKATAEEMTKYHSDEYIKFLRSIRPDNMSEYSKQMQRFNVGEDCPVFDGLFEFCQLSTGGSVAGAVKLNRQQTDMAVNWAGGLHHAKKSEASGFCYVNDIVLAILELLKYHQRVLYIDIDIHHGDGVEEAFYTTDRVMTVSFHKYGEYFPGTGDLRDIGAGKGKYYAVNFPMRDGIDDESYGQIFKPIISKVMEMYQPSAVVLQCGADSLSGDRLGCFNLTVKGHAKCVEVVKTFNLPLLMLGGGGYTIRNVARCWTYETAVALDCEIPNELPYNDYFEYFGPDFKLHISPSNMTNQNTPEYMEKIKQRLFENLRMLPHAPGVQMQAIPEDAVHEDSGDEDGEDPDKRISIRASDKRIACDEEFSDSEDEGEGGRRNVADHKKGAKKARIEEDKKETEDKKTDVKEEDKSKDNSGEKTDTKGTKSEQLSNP

Histone deacetylase 3 = Histone deacetylase 3 (Homo sapiens, UniProt O15379); test: Inhibition of human recombinant HDAC3 using fluorogenic HDAC substrate-3 by fluorescence assay
Chain of Histone deacetylase 3 (O15379 whole entry): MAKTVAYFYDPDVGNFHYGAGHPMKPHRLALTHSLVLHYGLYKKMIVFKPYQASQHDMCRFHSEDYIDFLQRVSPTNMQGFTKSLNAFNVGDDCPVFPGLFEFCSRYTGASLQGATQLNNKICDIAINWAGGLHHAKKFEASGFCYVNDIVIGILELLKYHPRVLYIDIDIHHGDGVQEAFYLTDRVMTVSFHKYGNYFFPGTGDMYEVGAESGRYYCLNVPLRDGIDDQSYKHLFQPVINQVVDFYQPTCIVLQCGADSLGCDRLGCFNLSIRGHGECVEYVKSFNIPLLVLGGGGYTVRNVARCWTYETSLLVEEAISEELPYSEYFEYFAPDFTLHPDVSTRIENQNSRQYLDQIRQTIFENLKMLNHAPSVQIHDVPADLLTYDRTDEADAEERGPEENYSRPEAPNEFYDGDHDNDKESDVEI

Histone deacetylase 8 = target: T2, Histone deacetylase 8 (Homo sapiens, UniProt Q9BY41); test: Inhibition of human recombinant HDAC8 using fluorogenic HDAC substrate class 2A by fluorescence assay
T2 sequence (Q9BY41 whole entry): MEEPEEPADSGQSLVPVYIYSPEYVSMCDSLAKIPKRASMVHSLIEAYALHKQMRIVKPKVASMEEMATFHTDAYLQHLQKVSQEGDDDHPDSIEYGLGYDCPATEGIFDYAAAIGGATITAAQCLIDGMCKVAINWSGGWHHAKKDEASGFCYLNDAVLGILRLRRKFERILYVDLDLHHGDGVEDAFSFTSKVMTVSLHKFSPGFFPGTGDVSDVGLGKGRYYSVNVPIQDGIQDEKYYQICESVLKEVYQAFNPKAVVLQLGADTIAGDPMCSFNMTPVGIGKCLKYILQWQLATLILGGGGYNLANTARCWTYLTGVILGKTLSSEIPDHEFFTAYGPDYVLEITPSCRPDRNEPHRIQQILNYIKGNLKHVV

Histone deacetylase 4 = Histone deacetylase 4 (Homo sapiens, UniProt P56524); test: Inhibition of human recombinant HDAC4 using fluorogenic HDAC substrate class 2A by fluorescence assay
Chain of Histone deacetylase 4 (P56524 whole entry): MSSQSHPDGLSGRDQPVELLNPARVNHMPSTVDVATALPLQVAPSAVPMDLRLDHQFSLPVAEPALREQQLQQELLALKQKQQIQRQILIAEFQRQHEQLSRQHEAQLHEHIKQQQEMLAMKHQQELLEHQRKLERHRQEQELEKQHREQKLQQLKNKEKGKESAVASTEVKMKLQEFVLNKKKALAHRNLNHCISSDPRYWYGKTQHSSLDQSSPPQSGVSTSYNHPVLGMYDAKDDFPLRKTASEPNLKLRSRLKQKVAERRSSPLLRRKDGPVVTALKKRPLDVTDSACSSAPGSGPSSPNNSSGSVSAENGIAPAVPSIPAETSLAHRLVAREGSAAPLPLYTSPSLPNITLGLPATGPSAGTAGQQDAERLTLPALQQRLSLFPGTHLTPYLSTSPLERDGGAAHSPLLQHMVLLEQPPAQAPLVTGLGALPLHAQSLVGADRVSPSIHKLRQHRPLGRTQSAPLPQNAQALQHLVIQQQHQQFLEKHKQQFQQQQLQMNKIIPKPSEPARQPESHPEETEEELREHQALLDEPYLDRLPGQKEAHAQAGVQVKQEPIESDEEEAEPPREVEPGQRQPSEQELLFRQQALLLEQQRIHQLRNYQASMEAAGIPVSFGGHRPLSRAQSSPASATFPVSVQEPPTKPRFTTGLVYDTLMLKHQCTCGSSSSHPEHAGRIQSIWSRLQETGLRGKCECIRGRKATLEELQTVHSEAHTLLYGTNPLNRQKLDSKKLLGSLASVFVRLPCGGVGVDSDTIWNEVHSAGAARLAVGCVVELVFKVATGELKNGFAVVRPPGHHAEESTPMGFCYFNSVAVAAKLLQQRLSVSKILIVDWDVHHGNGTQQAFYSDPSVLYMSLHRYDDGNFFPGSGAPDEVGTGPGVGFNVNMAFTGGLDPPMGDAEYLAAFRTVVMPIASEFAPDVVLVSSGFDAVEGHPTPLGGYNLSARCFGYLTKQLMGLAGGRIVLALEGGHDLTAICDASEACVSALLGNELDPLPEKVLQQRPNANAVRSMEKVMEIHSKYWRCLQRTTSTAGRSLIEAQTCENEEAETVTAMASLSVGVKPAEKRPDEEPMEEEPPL

Histone deacetylase 5 = Histone deacetylase 5 (Homo sapiens, UniProt Q9UQL6); test: Inhibition of human recombinant HDAC5 using fluorogenic HDAC substrate class 2A by fluorescence assay
Chain of Histone deacetylase 5 (Q9UQL6 whole entry): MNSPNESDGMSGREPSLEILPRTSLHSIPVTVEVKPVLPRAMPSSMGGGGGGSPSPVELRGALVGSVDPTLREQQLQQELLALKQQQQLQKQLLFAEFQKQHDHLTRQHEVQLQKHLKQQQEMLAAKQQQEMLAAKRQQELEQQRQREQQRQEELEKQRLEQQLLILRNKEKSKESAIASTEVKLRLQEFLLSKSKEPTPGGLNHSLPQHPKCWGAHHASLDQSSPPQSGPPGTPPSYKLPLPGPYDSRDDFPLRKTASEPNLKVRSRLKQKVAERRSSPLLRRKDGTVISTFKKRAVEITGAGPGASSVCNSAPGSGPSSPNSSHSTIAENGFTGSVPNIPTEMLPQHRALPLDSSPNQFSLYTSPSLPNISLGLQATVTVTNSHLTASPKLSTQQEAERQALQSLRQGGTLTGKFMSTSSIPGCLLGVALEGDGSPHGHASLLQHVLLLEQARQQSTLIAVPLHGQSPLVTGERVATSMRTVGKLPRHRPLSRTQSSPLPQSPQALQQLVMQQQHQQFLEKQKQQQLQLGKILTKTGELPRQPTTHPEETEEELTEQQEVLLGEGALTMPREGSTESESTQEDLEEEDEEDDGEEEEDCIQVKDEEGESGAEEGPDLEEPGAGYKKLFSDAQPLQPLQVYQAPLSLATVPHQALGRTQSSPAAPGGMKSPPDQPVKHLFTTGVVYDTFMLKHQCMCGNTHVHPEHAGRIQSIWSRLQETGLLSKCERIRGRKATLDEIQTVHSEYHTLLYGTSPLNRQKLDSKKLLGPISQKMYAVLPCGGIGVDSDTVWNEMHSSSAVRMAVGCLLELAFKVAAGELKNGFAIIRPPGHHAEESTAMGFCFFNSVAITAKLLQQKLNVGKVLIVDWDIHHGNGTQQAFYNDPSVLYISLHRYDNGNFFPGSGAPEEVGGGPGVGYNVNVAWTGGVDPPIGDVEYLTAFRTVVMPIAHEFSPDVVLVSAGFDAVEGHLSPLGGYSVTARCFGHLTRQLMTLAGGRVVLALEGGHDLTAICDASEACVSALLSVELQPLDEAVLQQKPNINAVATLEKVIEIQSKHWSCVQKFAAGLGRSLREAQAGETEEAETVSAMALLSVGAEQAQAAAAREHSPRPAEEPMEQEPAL

Histone deacetylase 7 = target: T3, Histone deacetylase 7 (Homo sapiens, UniProt Q8WUI4); test: Inhibition of human recombinant HDAC7 using fluorogenic HDAC substrate class 2A by fluorescence assay
T3 sequence (Q8WUI4 whole entry): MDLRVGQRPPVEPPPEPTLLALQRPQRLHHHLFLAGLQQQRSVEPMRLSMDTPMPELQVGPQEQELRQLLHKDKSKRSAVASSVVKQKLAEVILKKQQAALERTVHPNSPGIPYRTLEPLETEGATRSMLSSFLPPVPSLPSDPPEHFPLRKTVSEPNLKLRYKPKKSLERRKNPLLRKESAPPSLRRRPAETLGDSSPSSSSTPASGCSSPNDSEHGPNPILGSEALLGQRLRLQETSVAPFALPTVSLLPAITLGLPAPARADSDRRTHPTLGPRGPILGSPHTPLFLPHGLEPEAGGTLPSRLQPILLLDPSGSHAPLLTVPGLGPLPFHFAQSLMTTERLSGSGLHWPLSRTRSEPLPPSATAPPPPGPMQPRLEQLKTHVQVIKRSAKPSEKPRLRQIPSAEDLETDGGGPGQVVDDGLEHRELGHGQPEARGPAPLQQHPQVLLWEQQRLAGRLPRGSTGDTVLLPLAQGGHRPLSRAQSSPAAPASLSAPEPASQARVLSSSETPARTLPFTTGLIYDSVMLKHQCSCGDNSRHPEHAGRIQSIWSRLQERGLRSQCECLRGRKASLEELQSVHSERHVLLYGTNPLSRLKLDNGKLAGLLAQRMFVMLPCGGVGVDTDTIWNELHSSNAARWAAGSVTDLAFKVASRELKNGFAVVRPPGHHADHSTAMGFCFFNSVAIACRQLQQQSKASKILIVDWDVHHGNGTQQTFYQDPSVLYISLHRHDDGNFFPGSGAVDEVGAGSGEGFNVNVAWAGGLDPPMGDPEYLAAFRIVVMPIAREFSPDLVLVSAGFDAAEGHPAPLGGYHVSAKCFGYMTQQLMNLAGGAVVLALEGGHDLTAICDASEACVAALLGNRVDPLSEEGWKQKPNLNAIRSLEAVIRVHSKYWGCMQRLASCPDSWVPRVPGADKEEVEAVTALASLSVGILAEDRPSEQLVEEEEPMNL

Histone deacetylase 9 = Histone deacetylase 9 (Homo sapiens, UniProt Q9UKV0); test: Inhibition of human recombinant HDAC9 using fluorogenic HDAC substrate class 2A by fluorescence assay
Chain of Histone deacetylase 9 (Q9UKV0 whole entry): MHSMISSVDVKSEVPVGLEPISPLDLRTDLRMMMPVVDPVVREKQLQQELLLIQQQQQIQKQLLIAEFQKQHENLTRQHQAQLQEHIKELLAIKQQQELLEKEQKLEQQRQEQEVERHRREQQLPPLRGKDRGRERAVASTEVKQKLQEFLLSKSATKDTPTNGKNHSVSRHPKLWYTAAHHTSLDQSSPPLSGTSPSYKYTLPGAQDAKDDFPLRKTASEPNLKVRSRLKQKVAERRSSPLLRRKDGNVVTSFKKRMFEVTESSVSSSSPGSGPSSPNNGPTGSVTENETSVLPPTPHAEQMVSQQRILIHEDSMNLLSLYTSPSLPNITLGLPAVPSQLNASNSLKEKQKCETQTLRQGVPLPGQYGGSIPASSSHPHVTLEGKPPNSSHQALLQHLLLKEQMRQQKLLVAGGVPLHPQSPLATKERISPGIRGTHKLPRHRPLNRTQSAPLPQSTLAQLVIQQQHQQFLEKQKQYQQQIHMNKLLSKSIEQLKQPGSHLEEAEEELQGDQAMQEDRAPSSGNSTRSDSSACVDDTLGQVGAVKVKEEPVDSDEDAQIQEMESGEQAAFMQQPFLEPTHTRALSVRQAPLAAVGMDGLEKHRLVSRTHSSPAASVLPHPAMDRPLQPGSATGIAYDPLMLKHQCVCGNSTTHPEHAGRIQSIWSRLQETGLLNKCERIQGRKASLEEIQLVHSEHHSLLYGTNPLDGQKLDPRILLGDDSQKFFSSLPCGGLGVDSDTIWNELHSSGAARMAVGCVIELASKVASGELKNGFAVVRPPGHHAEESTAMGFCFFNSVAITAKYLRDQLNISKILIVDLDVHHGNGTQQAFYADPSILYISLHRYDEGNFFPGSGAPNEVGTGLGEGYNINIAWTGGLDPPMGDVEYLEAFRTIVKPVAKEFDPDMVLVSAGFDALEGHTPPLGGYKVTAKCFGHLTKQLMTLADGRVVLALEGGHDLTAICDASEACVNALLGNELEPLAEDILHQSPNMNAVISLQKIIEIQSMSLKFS

[2] = target: T4, Protein deacetylase HDAC6 (Homo sapiens, UniProt Q9UBN7); test: Inhibition of human recombinant HDAC6 using fluorogenic HDAC substrate-3 by fluorescence assay
T4 sequence (Q9UBN7 whole entry): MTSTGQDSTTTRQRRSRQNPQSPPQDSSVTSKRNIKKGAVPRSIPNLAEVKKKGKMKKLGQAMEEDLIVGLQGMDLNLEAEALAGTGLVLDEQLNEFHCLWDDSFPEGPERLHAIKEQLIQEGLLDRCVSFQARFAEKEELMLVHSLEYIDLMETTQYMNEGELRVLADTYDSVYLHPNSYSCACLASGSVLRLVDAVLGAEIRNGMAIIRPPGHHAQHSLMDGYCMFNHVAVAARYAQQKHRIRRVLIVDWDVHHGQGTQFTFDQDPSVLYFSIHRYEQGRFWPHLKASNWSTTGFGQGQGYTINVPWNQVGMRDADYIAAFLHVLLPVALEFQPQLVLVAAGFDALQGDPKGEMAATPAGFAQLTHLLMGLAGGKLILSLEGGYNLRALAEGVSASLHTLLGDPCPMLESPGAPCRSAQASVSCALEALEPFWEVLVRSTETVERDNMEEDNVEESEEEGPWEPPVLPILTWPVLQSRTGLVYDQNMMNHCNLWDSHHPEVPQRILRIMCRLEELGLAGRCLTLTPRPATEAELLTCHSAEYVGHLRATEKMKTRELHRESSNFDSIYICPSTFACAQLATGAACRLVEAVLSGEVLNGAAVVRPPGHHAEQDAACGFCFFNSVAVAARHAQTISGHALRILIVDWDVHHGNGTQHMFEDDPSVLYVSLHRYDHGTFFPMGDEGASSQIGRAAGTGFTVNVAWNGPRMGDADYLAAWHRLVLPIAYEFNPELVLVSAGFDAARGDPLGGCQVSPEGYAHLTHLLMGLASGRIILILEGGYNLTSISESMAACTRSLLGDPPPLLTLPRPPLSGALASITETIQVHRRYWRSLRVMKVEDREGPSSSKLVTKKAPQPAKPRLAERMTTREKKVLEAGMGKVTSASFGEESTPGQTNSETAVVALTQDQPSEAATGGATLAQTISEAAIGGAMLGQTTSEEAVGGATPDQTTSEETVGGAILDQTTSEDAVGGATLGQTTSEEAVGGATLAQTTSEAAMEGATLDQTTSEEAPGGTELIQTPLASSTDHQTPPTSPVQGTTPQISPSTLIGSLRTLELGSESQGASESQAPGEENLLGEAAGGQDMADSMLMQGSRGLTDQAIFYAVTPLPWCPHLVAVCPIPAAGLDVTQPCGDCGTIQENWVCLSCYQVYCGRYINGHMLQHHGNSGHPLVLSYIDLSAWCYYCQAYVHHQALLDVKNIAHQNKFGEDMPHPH

[3] = target: T5, Polyamine deacetylase HDAC10 (Homo sapiens, UniProt Q969S8); test: Inhibition of HDAC10 (unknown origin) by fluorescence assay
T5 sequence (Q969S8 whole entry): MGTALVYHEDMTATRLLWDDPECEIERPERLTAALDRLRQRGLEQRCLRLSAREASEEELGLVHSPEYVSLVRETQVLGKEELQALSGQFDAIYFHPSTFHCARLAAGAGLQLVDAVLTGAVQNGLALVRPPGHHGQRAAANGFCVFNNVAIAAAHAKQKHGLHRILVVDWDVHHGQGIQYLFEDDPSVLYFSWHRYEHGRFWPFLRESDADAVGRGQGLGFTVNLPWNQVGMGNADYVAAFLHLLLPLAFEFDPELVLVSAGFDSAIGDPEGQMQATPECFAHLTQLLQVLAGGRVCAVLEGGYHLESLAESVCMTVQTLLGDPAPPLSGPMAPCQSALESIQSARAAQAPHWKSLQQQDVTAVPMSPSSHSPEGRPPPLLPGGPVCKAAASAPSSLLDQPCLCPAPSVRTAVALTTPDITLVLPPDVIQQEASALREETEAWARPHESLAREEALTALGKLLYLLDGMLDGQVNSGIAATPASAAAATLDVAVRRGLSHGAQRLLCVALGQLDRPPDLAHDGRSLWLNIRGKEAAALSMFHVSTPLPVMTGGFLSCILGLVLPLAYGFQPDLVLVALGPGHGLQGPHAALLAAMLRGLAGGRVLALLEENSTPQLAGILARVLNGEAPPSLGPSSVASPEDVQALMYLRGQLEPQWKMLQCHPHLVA

Histone deacetylase 11 = target: T6, Histone deacetylase 11 (Homo sapiens, UniProt Q96DB2); test: Inhibition of human recombinant HDAC11 using fluorogenic HDAC substrate class 2A by fluorescence assay
T6 sequence (Q96DB2 whole entry): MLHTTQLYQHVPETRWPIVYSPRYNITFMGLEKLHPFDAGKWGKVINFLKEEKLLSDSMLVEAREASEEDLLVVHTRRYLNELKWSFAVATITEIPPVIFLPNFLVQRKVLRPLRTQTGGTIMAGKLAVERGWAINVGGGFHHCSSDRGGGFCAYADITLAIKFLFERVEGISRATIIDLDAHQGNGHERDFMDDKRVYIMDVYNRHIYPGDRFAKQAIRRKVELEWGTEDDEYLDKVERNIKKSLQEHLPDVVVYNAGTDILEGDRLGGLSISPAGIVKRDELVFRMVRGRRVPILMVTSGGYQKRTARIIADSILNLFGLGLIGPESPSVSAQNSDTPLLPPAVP

SH-SY5Y = test: Cytotoxicity against human SH-SY5Y cells assessed as reduction in cell viability after 3 days by MTS assay; assay type: functional; settings: for GI50: 72 h
[4] = target: T7, Protein deacetylase HDAC6 (Homo sapiens) (UniProt Q9UBN7); test: Inhibition of HDAC6 in human SH-SY5Y cells assessed as increase in alpha-tubulin acetylation after 24 hrs by Western blot analysis; assay type: cell-based
T7 sequence (whole entry): T4 sequence (Q9UBN7 whole entry)

[5] = target: T7, Protein deacetylase HDAC6 (Homo sapiens); test: Inhibition of HDAC6 in human SH-SY5Y cells assessed as increase in alpha-tubulin acetylation at 0.5 uM after 24 hrs by Western blot analysis; assay type: cell-based
Histone deacetylase 1 [6] = target: T1, Histone deacetylase 1; test: Inhibition of HDAC1 in human SH-SY5Y cells assessed as increase in histone H3 acetylation up to 20 uM after 24 hrs by Western blot analysis; assay type: cell-based
[7] = target: T7, Protein deacetylase HDAC6 (Homo sapiens); test: Inhibition of HDAC6 in human H1975 cells assessed as alpha-tubulin acetylation up to 10 uM after 24 hrs by Hoechst staining-based fluorescence microscopic analysis; assay type: cell-based
[8] = target: T7, Protein deacetylase HDAC6 (Homo sapiens); test: Inhibition of HDAC6 in human H1975 cells assessed as microtubule polymerization up to 10 uM after 24 hrs by Hoechst staining-based fluorescence microscopic analysis; assay type: cell-based

T1 sequence (Q13547 whole entry): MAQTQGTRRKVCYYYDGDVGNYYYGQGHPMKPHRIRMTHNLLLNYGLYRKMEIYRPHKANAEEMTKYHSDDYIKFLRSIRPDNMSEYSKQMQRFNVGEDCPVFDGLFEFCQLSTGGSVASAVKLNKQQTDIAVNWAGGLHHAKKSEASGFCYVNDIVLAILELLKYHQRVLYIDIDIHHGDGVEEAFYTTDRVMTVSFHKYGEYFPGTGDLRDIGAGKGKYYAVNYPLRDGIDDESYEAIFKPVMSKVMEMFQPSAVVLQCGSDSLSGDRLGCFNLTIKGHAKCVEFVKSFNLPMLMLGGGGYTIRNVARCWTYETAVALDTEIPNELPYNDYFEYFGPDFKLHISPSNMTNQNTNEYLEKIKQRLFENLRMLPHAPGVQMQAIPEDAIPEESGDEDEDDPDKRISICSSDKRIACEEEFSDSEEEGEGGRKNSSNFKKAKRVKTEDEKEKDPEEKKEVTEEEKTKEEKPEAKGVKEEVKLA

SMILES	IC50 (Histone deacetylase 1 [1])	IC50 (Histone deacetylase 2)	IC50 (Histone deacetylase 3)	IC50 (Histone deacetylase 8)	IC50 (Histone deacetylase 4)	IC50 (Histone deacetylase 5)	IC50 (Histone deacetylase 7)	IC50 (Histone deacetylase 9)	IC50 [2]	IC50 [3]	IC50 (Histone deacetylase 11)	Activity (SH-SY5Y)	GI50 (SH-SY5Y)	inhibition [4]	inhibition [5]	inhibition (Histone deacetylase 1 [6])	inhibition [7]	inhibition [8]
O=C(/C=C/c1ccc2c(c1)C(=O)c1ccccc1C2=O)NO	3.07 µM	13.6 µM	1.97 µM	> 100 µM	16.2 µM	8.59 µM	> 100 µM	> 100 µM	0.536 µM	1.47 µM	> 100 µM	Dose-dependent effect	22.3 µM					
O=C(NO)c1ccc2c(c1)C(=O)c1ccccc1C2=O	0.91 µM	4.62 µM	3.95 µM	0.599 µM	5.61 µM	1.36 µM		7.78 µM	0.056 µM	5 µM	80 µM	Dose-dependent effect	15.8 µM	Dose-dependent effect	Active	inactive	Active	Active
